Reference: patent US20090220528A1, “Stimulation of Toll-Like Receptors on T Cells” (THE TRUSTEES OF THE UNIVERISTY OF PENNSYLVANIA CNETER FOR …, priority 2005, published 2009)

How the values were obtained:
Type in all cases: cell-based, mouse
[1] = test system: activated CD4+ T cells; experiment: Effect of signaling inhibitors on TLR ligand-mediated survival; details: for effect on poly(I:C)- or CpG DNA-enhanced activated CD4+ T cell survival: dose dependent (FIG. 4A)
Protocol: TLR ligands used in all experiments were dissolved in PBS except for PGN, which was solubilized in PBS with 0.02% ethanol. SB203580, U0126, NEMO-binding domain peptide (NBD), and NBD-C were all dissolved in DMSO and purchased from Calbiochem (La Jolla, Calif.).
Therefore, the next set of experiments were designed to assess whether MAPK p38 or ERK 1/2 activation is necessary for TLR ligand-mediated survival in activated CD4^+ T cells. The ERK1/2 activation inhibitor U0126 or the MAPK p38 inhibitor SB203580 was added to TLR ligand-treated activated CD4^+ T cells and viability was assessed.

[2] = test system: Foxp3+GFP+ and Foxp3-GFP- T cells; experiment: Foxp3 expression (GFP reporter) and IL-6 production in Foxp3+ and Foxp3- T cells under stimulation; details: stimulation with anti-CD3 and anti-CD28 antibodies and TGF-b, with additions (FIG. 22)
Protocol: In order to study the effect of stimulation conditions on Foxp3 expression, T cells were from mice having a reporter construct introduced into the FOXP3 locus (Betteli et al., 2006, Nature 441:235-238) by sorting cells based on the GFP-reporter construct. The reporter construct expresses both Fox3p and the fluorescent protein GFP. T cells that are Foxp3^− (i.e. GFP^−) and T cells that are Foxp3^+ (i.e. GFP^+) were isolated (FIG. 21A). Foxp3 expression was then assessed under different stimulation conditions, […]

[3] = test system: activated CD4+ T cells; experiment: Survival of activated CD4+ T cells treated with TLR ligands (7-AAD/annexin exclusion)
Protocol: All CD4^+ T cell activation was conducted in complete culture medium composed of RPMI 1640 (Life Technologies, Grand Island, N.Y.), 1.5 μM 2-ME (Sigma-Aldrich, St. Louis, Mo.), 50 μg/ml gentamicin (Life Technologies), and 10% FCS (Mediatech, Washington, D.C.) at 37° C. in 5% CO2. Purified CD4^+ T cells from either BALB/c, MyD88^−/−, or MyD88^+/+ wild-type control littermates were activated on 24-well plates (Costar, Cambridge, Mass.) coated with 1.0 μg/ml CD3ε monoclonal antibody (2C11; BD Biosciences) and 1.0 μg/ml CD28 monoclonal antibody (37.51; BD Biosciences) for 16 hours. In experiments with DO11.10 mice, 1 μg/ml of pOVA, a peptide derived from chicken albumin amino acid residues […] was added to 2×10^6/ml erythrocyte-depleted splenocyte and lymph node cell pools for 16 hours. Following pOVA-induced activation, CD4^+ T cell APC complexes were disrupted with 5 mM EDTA/PBS for 10 minutes at 25° C., washed twice in PBS, and purified with magnetic beads using the MACS CD4^+ T cell isolation kit as described elsewhere herein. Purity of activated DO11.10 CD4^+ T cells exceeded 96%. As described elsewhere herein, the remainder of the contaminants by FACS analysis were CD8^+ T cells, with APCs at <0.1% by RT-PCR.
Following activation, purified CD4^+ T cells were washed twice in PBS and replated in culture medium at 10^6/ml. Cultures were left untreated or treated with either TLR ligands and/or inhibitors for indicated times and concentrations. Following incubation, CD4^+ T cells were washed twice in PBS/2% FBS and stained with CD4-allophycocyanin monoclonal antibody and 7-aminoactinomycin D (7-AAD; BD PharMingen) or annexin (BD PharMingen) and survival was assessed by exclusion of either of these two stains. For absolute live cell counts 50,000 CD45.1^+ splenocytes labeled with anti-CD45.1-PE monoclonal antibody (A20; BD PharMingen) were also added to stained CD4^+ T cell sample FACS tubes just before FACS analysis. Live CD4^+ T cell counts were calculated by taking the ratio of the number of CD4^+CD45.1^−7-ADD^− events collected to the number CD45.1^+ events collected and multiplying by 50,000. Proliferation was measured by CFSE dye dilution as previously described (Wells et al., 1997 J. Clin. Invest. 100:3173).
TLR ligands directly promote the survival of several cell types including neutrophils, DC, and B cells (Lundqvist et al., 2002, Cancer Immunol. Immunother. 51:139; Sabroe et al., 2003, J. Immunol. 170:5268; Grillot et al., 1996, J. Exp. Med. 183:381; Grillot et al., 1996, J. Exp. Med. 183:381). Since it was observed that activated CD4^+ T cells also express TLRs and signal in response to TLR ligands, the next set of experiments were designed to assess whether TLR ligands could directly enhance survival of these cells. DO11.10 CD4^+ T cells, that encode a transgenic TCR specific for a peptide derived from chicken OVA (pOVA), were activated with pOVA-pulsed APCs for 16 hours ex vivo, purified by magnetic beads to remove all non-CD4^+ T cells, and replated in unsupplemented culture medium in the absence or presence of TLR ligands. Survival was then assessed 72 hours following activation (FIG. 3A). Poly(I:C) or CpG DNA induced increases of activated CD4^+ T cell survival from 38% to 71 and 73%, respectively.

In the case of `N#CC(=C(/N)Sc1ccccc1N)/C(C#N)=C(\N)Sc1ccccc1N` [U0126], the “overall survival rates of TLR-treated activated CD4+ T cells” value ([1]; concentration of 10 μM) is reported as “small increase” and the “effect on poly(I:C)- or CpG DNA-enhanced activated CD4+ T cell survival” value [1] is reported as “neither U0126 or SB203580 treatment decreased”.
In the case of “IL-6: cytokine added to the stimulation conditions”, the “Foxp3 expression in Foxp3-GFP- cells (non-regulatory T cells)” value [2] is reported as “blocked the induction of Foxp3”.
`C[S+]([O-])c1ccc(-c2nc(-c3ccncc3)c(-c3ccc(F)cc3)[nH]2)cc1` (stereo not shown) [SB203580] was tested, and the “effect on poly(I:C)- or CpG DNA-enhanced activated CD4+ T cell survival” value [1] was “neither U0126 or SB203580 treatment decreased”.
With TGF-b the “Foxp3 expression in Foxp3-GFP- cells (non-regulatory T cells)” value [2] was “promoted Foxp3 expression”.
In the case of poly(C), the “effect on activated CD4+ T cell survival (dose response)” value ([3]; FIG. 3B, purified activated CD4+ T cells) is reported as “no significant effect”.
IFN-α was tested, and the “activated CD4+ T cell survival” value ([3]; 72 hours following activation, DO11.10 CD4+ T cells activated with pOVA-pulsed APCs, purified, untreated 38% (FIG. 3A)) was 67%.
